These results are taken from patent US11426473B2, “Nitrogen-containing compound or salt thereof, or metal complex thereof” (FUJIFILM Corporation, priority 2013, dated 2022).

One assay has as its target T1, Integrin αvβ5 (Homo sapiens, UniProt P06756+P18084).
T1 construct: purchased Chemicon International, Inc
The assay can be described thus: Integrin αvβ5 binding affinity test. As to the method: (§1) […] αvβ5 (Chemicon International, Inc.) was immobilized on each well of a 96-well plate (Corning Inc.). Each well was blocked with a 1% Block Ace (DS Pharma Biomedical Co., Ltd) solution and then washed with PBST (10 mM Na2HPO4 pH 7.5, 150 mM NaCl, and 0.01% Tween 20). Evaluation compound solutions having a 2-fold concentration (10 concentrations of 3.16-fold dilutions from 0.3 μmol/L, buffer (20 mM Tris-HCl pH 7.5, 150 mM NaCl, 1 mM CaCl2, 1 mM MgCl2, and 1 mM MnCl2)) and a 4 μg/mL biotinylated vitronectin solution (vitronectin (Upstate Biotechnology Inc.) was labeled with EZ-Link Sulfo-NHS-Biotinylation Kit (Pierce/Thermo Fisher Scientific Inc.) and then concentration-adjusted) were each added at 50 μL/well, and the plate was shaken at room temperature for 2 hours. After washing with PBST, a 0.2 μg/mL avidin peroxidase (Pierce/Thermo Fisher Scientific Inc.) solution was added thereto, and the plate was shaken at room temperature for 1 hour. After washing with PBST, color was developed by an o-phenylenediamine (Sigma-Aldrich Inc.) solution (the reaction was terminated by the addition of 4 mol/L sulfuric acid), and the absorbance was measured (490 nm, Reference: 595 nm). The IC50 value was calculated using XLfit 3.0 (ID Business Solutions Ltd.). RGDfV (Bachem AG) was measured in duplicate as a QC sample for each plate.

The target of a further assay is T2, Integrin αvβ3 (Homo sapiens, UniProt P05106+P06756).
T2 construct: purchased Chemicon International, Inc
T2 sequence (P06756 31-889 limits assumed): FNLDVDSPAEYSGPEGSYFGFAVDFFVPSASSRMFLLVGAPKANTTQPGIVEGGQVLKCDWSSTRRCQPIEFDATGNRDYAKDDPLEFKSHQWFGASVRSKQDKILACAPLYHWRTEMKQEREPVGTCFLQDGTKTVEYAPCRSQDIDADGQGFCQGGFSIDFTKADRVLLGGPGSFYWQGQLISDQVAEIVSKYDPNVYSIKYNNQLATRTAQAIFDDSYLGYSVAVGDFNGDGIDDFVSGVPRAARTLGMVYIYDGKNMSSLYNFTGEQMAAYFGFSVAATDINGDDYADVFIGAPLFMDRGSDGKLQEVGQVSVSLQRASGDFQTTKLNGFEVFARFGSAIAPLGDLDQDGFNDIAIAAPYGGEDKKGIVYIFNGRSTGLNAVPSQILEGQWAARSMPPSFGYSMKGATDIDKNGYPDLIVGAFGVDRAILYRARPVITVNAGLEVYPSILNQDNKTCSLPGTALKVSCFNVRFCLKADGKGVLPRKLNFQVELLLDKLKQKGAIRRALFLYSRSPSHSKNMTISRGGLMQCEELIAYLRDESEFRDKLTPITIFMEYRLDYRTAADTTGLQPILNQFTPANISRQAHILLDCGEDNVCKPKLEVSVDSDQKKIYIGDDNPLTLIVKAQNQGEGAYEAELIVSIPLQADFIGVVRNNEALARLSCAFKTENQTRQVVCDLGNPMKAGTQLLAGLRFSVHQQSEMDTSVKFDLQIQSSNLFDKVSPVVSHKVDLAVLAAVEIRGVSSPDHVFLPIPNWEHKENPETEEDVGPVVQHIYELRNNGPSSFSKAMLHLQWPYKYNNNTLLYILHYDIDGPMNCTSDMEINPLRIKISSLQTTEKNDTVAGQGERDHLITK
T2 sequence (P06756 891-1048 partner limits assumed): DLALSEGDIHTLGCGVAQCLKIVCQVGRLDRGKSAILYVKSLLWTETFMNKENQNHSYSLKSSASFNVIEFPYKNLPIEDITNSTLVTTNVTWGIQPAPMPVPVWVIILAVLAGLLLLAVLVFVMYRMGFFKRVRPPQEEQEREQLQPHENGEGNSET
T2 sequence (P05106 27-788): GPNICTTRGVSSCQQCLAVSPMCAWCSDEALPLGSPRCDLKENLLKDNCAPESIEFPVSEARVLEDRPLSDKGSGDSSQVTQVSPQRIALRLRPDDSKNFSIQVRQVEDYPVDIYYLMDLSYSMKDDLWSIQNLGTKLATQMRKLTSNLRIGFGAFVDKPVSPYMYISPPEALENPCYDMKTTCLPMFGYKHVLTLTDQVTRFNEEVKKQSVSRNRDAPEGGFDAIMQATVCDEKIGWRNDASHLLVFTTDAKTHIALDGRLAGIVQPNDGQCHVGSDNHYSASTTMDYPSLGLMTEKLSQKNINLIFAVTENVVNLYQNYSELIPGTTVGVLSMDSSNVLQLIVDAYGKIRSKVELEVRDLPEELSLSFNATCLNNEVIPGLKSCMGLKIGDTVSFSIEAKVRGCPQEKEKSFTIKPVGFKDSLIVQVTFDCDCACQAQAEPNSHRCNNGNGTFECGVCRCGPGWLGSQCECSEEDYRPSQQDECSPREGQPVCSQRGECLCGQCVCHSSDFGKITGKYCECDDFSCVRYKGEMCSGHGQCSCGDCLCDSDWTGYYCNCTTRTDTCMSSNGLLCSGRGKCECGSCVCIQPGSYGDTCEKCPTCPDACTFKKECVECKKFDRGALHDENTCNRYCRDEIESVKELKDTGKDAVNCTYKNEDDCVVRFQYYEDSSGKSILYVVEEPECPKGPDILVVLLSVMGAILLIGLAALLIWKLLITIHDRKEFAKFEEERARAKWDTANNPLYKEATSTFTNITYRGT
Briefly: Integrin αvβ3 binding affinity test. As to the method: as §1, with “αvβ3” for “αvβ5”, “T-PBS (PBS containing 0.05%” for “PBST (10 mM Na2HPO4 pH 7.5, 150 mM NaCl, and 0.01%”, “T-PBS,” for “PBST,”

The mark [1] stands for this setting: inhibition of biotinylated vitronectin binding to immobilized αvβ5, read-out: IC50 value αvβ5.
Setting [2] is: inhibition of biotinylated vitronectin binding to immobilized αvβ3, read-out: IC50 value αv β3.

pIC50: −log10 of the molar value. Read-outs that look alike come from different tables or passages of the source.

T1 sequence (P06756 31-889 limits assumed): as the sequence (P06756 31-889 limits assumed) above
T1 sequence (P06756 891-1048 partner limits assumed): as the sequence (P06756 891-1048 partner limits assumed) above
T1 sequence (P18084 24-799): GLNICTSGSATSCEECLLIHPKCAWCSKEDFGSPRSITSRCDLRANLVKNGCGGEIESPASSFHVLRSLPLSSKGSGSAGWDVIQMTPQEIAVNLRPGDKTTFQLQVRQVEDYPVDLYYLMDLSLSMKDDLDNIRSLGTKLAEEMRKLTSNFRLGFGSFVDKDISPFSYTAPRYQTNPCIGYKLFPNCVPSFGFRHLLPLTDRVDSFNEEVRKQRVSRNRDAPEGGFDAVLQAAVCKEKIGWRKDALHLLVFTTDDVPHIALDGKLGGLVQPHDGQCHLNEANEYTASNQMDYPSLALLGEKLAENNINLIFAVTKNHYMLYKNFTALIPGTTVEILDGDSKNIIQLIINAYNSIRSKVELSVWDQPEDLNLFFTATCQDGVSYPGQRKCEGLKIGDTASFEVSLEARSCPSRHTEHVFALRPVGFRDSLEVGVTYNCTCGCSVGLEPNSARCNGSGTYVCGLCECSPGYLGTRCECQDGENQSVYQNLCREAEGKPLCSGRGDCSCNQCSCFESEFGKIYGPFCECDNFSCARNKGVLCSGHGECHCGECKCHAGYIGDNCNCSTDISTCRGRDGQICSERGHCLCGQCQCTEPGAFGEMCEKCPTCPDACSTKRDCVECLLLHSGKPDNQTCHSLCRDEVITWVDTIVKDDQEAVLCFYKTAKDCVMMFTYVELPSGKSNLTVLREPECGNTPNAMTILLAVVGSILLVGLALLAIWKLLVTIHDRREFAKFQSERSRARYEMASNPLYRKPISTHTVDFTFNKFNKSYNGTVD

Take `Cc1cc(OCCCC(=O)NCCNC(=O)[C@H](CS(=O)(=O)O)NC(=O)CN2CCN(CC(=O)O)CCN(CC(=O)O)CCN(CC(=O)O)CC2)cc(C)c1S(=O)(=O)N[C@@H](CNC(=O)CCCCc1ccc2c(n1)NCCC2)C(=O)O` [Compound P2, 2,2′,2′-(10-(2-(((R)-1-((2-(4-(4-(N—((S)-1-carboxy-2-(5-(5,6,7,8-tetrahydro-1,8-naphthyridin-2-yl)pentanamido)ethyl)sulfamoyl)-3,5-dimethylphenoxy)butanamido)ethyl)amino)-1-oxo-3-sulfopropan-2-yl)amino)-2-oxoethyl)-1,4,7,10-tetraazacyclododecane-1,4,7-triyl)triacetic acid]: the pIC50 at Integrin αvβ5 (setting [1]) and on Integrin αvβ3 (setting [2]) was above 9.00 in each case.
For the compound `Cc1cc(OCCCC(=O)NCCNC(=O)COCCOCCNC(=O)CN2CCN(CC(=O)O)CCN(CC(=O)O)CCN(CC(=O)O)CC2)cc(C)c1S(=O)(=O)N[C@@H](CNC(=O)c1ccc(CCc2ccc3c(n2)NCCC3)cc1)C(=O)O` [Compound D3, (S)-2,2′,2′-(10-(19-(4-(N-(1-carboxy-2-(4-(2-(5,6,7,8-tetrahydro-1,8-naphthyridin-2-yl)ethyl)benzamido)ethyl)sulfamoyl)-3,5-dimethylphenoxy)-2,11,16-trioxo-6,9-dioxa-3,12,15-triazanonadecyl)-1,4,7,10-tetraazacyclododecane-1,4,7-triyl)triacetic acid], the pIC50 at Integrin αvβ5 (setting [1]) and at Integrin αvβ3 (setting [2]) was above 9.00 each time.
For `Cc1cc(OCCCC(=O)NCCNC(=O)[C@H](CS(=O)(=O)O)NC(=O)CN2CCN(CC(=O)O)CCN(CC(=O)O)CCN(CC(=O)O)CC2)cc(C)c1S(=O)(=O)N[C@@H](CNC(=O)CCCCCc1ccc2c(n1)NCCC2)C(=O)O` [Compound W10, 2,2′,2″-(10-(2-(((R)-1-((2-(4-(4-(N—((S)-1-carboxy-2-(6-(5,6,7,8-tetrahydro-1,8-naphthyridin-2-yl)hexanamido)ethyl)sulfamoyl)-3,5-dimethylphenoxy)butanamido)ethyl)amino)-1-oxo-3-sulfopropan-2-yl)amino)-2-oxoethyl)-1,4,7,10-tetraazacyclododecane-1,4,7-triyl)triacetic acid], the pIC50 was 8.00 to 9.00 on Integrin αvβ5 (setting [1]) and above 9.00 at Integrin αvβ3 (setting [2]).
As to `Cc1cc(OCCCC(=O)NCCNC(=O)[C@H](CS(=O)(=O)O)NC(=O)[C@H](CS(=O)(=O)O)NC(=O)CN2CCN(CC(=O)O)CCN(CC(=O)O)CCN(CC(=O)O)CC2)cc(C)c1S(=O)(=O)N[C@@H](CNC(=O)c1ccc(CCc2cccc(N)n2)cc1)C(=O)O` [Compound N3, 2,2′,2″-(10-((4R,7R)-16-(4-(N—((S)-2-(4-(2-(6-aminopyridin-2-yl)ethyl)benzamido)-1-carboxyethyl)sulfamoyl)-3,5-dimethylphenoxy)-2,5,8,13-tetraoxo-4,7-bis(sulfomethyl)-3,6,9,12-tetraazahexadecyl)-1,4,7,10-tetraazacyclododecane-1,4,7-triyl)triacetic acid], the pIC50 on Integrin αvβ5 (setting [1]) and on Integrin αvβ3 (setting [2]) was above 9.00 each time.
In the case of `Cc1cc(OCCCC(=O)NCCNC(=O)[C@H](CS(=O)(=O)O)NC(=O)[C@H](CS(=O)(=O)O)NC(=O)CN2CCN(CC(=O)O)CCN(CC(=O)O)CCN(CC(=O)O)CC2)cc(C)c1S(=O)(=O)N[C@@H](CNC(=O)c1ccc(CCc2ccc3c(n2)NCCC3)s1)C(=O)O` [Compound X9, 2,2′,2″-(10-((4R,7R)-16-(4-(N—((S)-1-carboxy-2-(5-(2-(5,6,7,8-tetrahydro-1,8-naphthyridin-2-yl)ethyl)thiophene-2-carboxamido)ethyl)sulfamoyl)-3,5-dimethylphenoxy)-2,5,8,13-tetraoxo-4,7-bis(sulfomethyl)-3,6,9,12-tetraazahexadecyl)-1,4,7,10-tetraazacyclododecane-1,4,7-triyl)triacetic acid], the pIC50 on Integrin αvβ5 (setting [1]) is 8.00 to 9.00; on Integrin αvβ3 (setting [2]) it was above 9.00.
In the same order, the values of `Cc1cc(OCCCC(=O)NCCNC(=O)CN2CCN(CC(=O)O)CCN(CC(=O)O)CCN(CC(=O)O)CC2)cc(C)c1S(=O)(=O)N[C@@H](CNC(=O)c1ccc(CCc2ccc3c(n2)NCCC3)cc1)C(=O)O` [Compound S2, (S)-2,2′,2″-(10-(2-((2-(4-(4-(N-(1-carboxy-2-(4-(2-(5,6,7,8-tetrahydro-1,8-naphthyridin-2-yl)ethyl)benzamido)ethyl)sulfamoyl)-3,5-dimethylphenoxy)butanamido)ethyl)amino)-2-oxoethyl)-1,4,7,10-tetraazacyclododecane-1,4,7-triyl)triacetic acid] are above 9.00 and above 9.00.
As for `Cc1cc(OCCCC(=O)NCCNC(=O)[C@H](CS(=O)(=O)O)NC(=O)CCC(C(=O)O)N2CCCN3CCN(CCCN(CC(=O)O)CC3)CC2)cc(C)c1S(=O)(=O)N[C@@H](CNC(=O)CCCCc1ccc2c(n1)NCCC2)C(=O)O` (single isomer, unassigned) [Ab9-a], the pIC50 at Integrin αvβ5 (setting [1]) and on Integrin αvβ3 (setting [2]) was above 9.00 throughout.
With `Cc1cc(OCCCC(=O)NCCNC(=O)[C@H](CS(=O)(=O)O)NC(=O)CC[C@H](C(=O)O)N2CCN(CC(=O)O)CCN(CC(=O)O)CC2)cc(C)c1S(=O)(=O)N[C@@H](CNC(=O)CCCCc1ccc2c(n1)NCCC2)C(=O)O` [Aa7, 2,2′-(7-((R)-1-carboxy-4-(((R)-1-((2-(4-(4-(N—((S)-1-carboxy-2-(5-(5,6,7,8-tetrahydro-1,8-naphthyridin-2-yl)pentanamido)ethyl)sulfamoyl)-3,5-dimethylphenoxy)butanamido)ethyl)amino)-1-oxo-3-sulfopropan-2-yl)amino)-4-oxobutyl)-1,4,7-triazonane-1,4-diyl)diacetic acid], the pIC50 at Integrin αvβ5 (setting [1]) and at Integrin αvβ3 (setting [2]) was above 9.00 each time.
With `Cc1cc(OCCCC(=O)NCCNC(=O)COCCOCCNC(=O)CN2CCN3CCN4CCN(CC2)CC(=O)[O][In]([O]C(=O)C3)[O]C(=O)C4)cc(C)c1S(=O)(=O)NC(CNC(=O)c1ccc(CCc2ccc3c(n2)NCCC3)cc1)C(=O)O` (stereo not drawn) [BB], the pIC50 at Integrin αvβ5 and on Integrin αvβ3 was above 9.00 throughout.
For the compound `Cc1cc(OCCCC(=O)NCCNC(=O)[C@H](CS(=O)(=O)O)NC(=O)CC[C@H](NC(=O)CN2CCN(CC(=O)O)CCN(CC(=O)O)CCN(CC(=O)O)CC2)C(=O)N[C@@H](CS(=O)(=O)O)C(=O)NCCNC(=O)CCCOc2cc(C)c(S(=O)(=O)N[C@@H](CNC(=O)c3ccc(CCc4cccc(N)n4)cc3)C(=O)O)c(C)c2)cc(C)c1S(=O)(=O)N[C@@H](CNC(=O)c1ccc(CCc2cccc(N)n2)cc1)C(=O)O` [Compound L10], the pIC50 on Integrin αvβ5 (setting [1]) and on Integrin αvβ3 (setting [2]) was above 9.00 in each case.
`Cc1cc(OCCCC(=O)NCCNC(=O)[C@H](CS(=O)(=O)O)NC(=O)CCC(C(=O)O)N2CCCN3CCN(CCCN(CC(=O)O)CC3)CC2)cc(C)c1S(=O)(=O)N[C@@H](CNC(=O)CCCCc1ccc2c(n1)NCCC2)C(=O)O` (single isomer, unassigned) [Ab9-b]: the pIC50 at Integrin αvβ5 (setting [1]) and on Integrin αvβ3 (setting [2]) was above 9.00 each time.
As for `Cc1cc(OCCCC(=O)NCCNC(=O)[C@H](CS(=O)(=O)O)NC(=O)[C@H](CS(=O)(=O)O)NC(=O)CN2CCN(CC(=O)O)CCN(CC(=O)O)CCN(CC(=O)O)CC2)cc(C)c1S(=O)(=O)N[C@@H](CNC(=O)CCCCc1ccc2c(n1)NCCC2)C(=O)O` [Compound O10, 2,2′,2′-(10-((4R,7R)-16-(4-(N—((S)-1-carboxy-2-(5-(5,6,7,8-tetrahydro-1,8-naphthyridin-2-yl)pentanamido)ethyl)sulfamoyl)-3,5-dimethylphenoxy)-2,5,8,13-tetraoxo-4,7-bis(sulfomethyl)-3,6,9,12-tetraazahexadecyl)-1,4,7,10-tetraazacyclododecane-1,4,7-triyl)triacetic acid], the pIC50 on Integrin αvβ5 (setting [1]) and at Integrin αvβ3 (setting [2]) was above 9.00 in each case.
